Tests used:
[1] = test system: A549-ACE2 infected with SARS-CoV-2; assay: cell count relative to DMSO; higher = less toxic; conditions: 24 h
[2] = test system: A549-ACE2 infected with SARS-CoV-2; assay: morphology score (similarity to uninfected cells); higher = more like uninfected cells; conditions: 24 h
[3] = test system: A549-ACE2 infected with SARS-CoV-2; assay: SARS-CoV-2 infection rate relative to DMSO; higher = more infection; conditions: 24 h
[4] = test system: HepG2; assay: cell viability relative to DMSO; higher = less toxic; conditions: 72 h
[5] = test system: U2OS; assay: as above; conditions: 72 h
[6] = test system: Vero E6; assay: as above; conditions: 72 h
[7] = test system: Calu-3; assay: as above; conditions: 72 h
[8] = test system: HepG2; assay: drug sensitivity score (DSS) for viability; higher = more toxic; extreme values may be limits of the assay; conditions: 72 h
[9] = test system: U2OS; assay: as above; conditions: 72 h
[10] = test system: Vero E6; assay: as above; conditions: 72 h
[11] = test system: Calu-3; assay: as above; conditions: 72 h
[12] = test system: Vero E6; assay: relative viability EC50 (midpoint between 100% and the lowest measured viability); higher = less toxic; conditions: 72 h
[13] = test system: Calu-3; assay: as above; conditions: 72 h
[14] = test system: Caco-2; assay: cell viability relative to DMSO; higher = less toxic; conditions: 72 h
[15] = test system: Caco-2; assay: drug sensitivity score (DSS) for viability; higher = more toxic; extreme values may be limits of the assay; conditions: 72 h
[16] = test system: A549-ACE2; assay: drug-induced phospholipidosis relative to tamoxifen; higher = more phospholipidosis
[17] = test system: HepG2; assay: relative viability EC50 (midpoint between 100% and the lowest measured viability); higher = less toxic; conditions: 72 h
[18] = test system: U2OS; assay: as above; conditions: 72 h
[19] = test system: Caco-2; assay: as above; conditions: 72 h

COc1ccc(C(=O)/C(Cc2cc(OC)c(OC)c(OC)c2)=C(\C(=O)O)c2ccc3c(c2)OCO3)cc1
Conditions | SARS-CoV-2 infection rate, [3] [%] | cell count, [1] [%] | cell viability, [4] [%] | cell viability, [5] [%] | cell viability, [6] [%] | cell viability, [7] [%] | morphology score, [2]
1 nM | – | – | 102 | 98.9 | 97.1 | 91.9 | –
10 nM | – | – | 93.9 | 94.9 | 101 | 87.6 | –
100 nM | – | – | 95.3 | 97.7 | 104 | 101 | –
0.3 µM | 101 | 98 | – | – | – | – | -0.18
1000 nM | – | – | 95.2 | 96.2 | 109 | 101 | –
3 µM | 95 | 104 | – | – | – | – | 0.12
10 µM | 42 | 82 | – | – | – | – | 0.6
10000 nM | – | – | 65.2 | 57.6 | 104 | 94.1 | –
30 µM | 16 | 22 | – | – | – | – | 0.36

Conditions | drug sensitivity score | relative viability EC50 [nM]
[8] | 2.4 | –
[9] | 2.8 | –
[10] | 0 | –
[11] | 0 | –
[12] | – | > 10000
[13] | – | > 10000

Cc1ccc(S(=O)(=O)/C=C/C#N)cc1 [BAY-11-7082]
Conditions | SARS-CoV-2 infection rate, [3] [%] | cell count, [1] [%] | cell viability, [4] [%] | cell viability, [5] [%] | cell viability, [6] [%] | cell viability, [7] [%] | cell viability, [14] [%] | morphology score, [2]
1 nM | – | – | 94.2 | 97.2 | 95.5 | 104 | 92.8 | –
10 nM | – | – | 96.9 | 98.7 | 94.4 | 101 | 90.5 | –
0.1 µM | 106 | 101 | – | – | – | – | – | 0
100 nM | – | – | 101 | 98.5 | 99.7 | 110 | 95.4 | –
0.3 µM | 99 | 98 | – | – | – | – | – | -0.16
1 µM | 108 | 95 | – | – | – | – | – | -0.29
1000 nM | – | – | 89.7 | 97.2 | 92.6 | 107 | 97.7 | –
3 µM | 107 | 84 | – | – | – | – | – | -0.27
10000 nM | – | – | 0 | 0.1 | 12.9 | 52.2 | 27 | –

Conditions | drug sensitivity score | relative viability EC50 [nM]
[8] | 7.2 | –
[9] | 5.9 | –
[10] | 6 | –
[11] | 2 | –
[12] | – | 2470
[15] | 4.3 | –
[17] | – | 2310
[18] | – | 2960
[19] | – | 2940

drug-induced phospholipidosis [%], [16]
Conditions | 0.3 µM | 0.833333 µM | 3.33333 µM | 6.66667 µM | 10 µM
24 h | 1.81 | 0.62 | 1.15 | 1.47 | 1.45
48 h | 2.31 | 0.11 | -1.24 | 0.67 | 2.43
72 h | 3.69 | -0.813 | -2.01 | -1.91 | -1.18

C[C@@H]1COCCN1c1cc(=O)n2c(n1)N(Cc1cncc(Cl)c1)[C@H](C(F)(F)F)CC2 [SAR405]
Conditions | SARS-CoV-2 infection rate, [3] [%] | cell count, [1] [%] | cell viability, [4] [%] | cell viability, [5] [%] | cell viability, [6] [%] | cell viability, [7] [%] | cell viability, [14] [%] | morphology score, [2]
1 nM | – | – | 98.1 | 97.4 | 105 | 99.7 | 84.5 | –
10 nM | – | – | 105 | 96.8 | 108 | 97.3 | 91.1 | –
0.1 µM | 94 | 105 | – | – | – | – | – | 0.11
100 nM | – | – | 101 | 99.2 | 104 | 109 | 80.6 | –
0.3 µM | 88 | 102 | – | – | – | – | – | 0.09
1 µM | 58 | 114 | – | – | – | – | – | 0.48
1000 nM | – | – | 76.9 | 96.3 | 96.9 | 104 | 59.7 | –
3 µM | 31 | 104 | – | – | – | – | – | 0.5
10000 nM | – | – | 55.5 | 68.9 | 63.8 | 88.6 | 76.3 | –

Conditions | drug sensitivity score | relative viability EC50 [nM]
[8] | 5.2 | –
[9] | 2 | –
[10] | 2.2 | –
[11] | 0 | –
[13] | – | > 10000
[15] | 8.1 | –

drug-induced phospholipidosis [%], [16]
Conditions | 0.3 µM | 0.833333 µM | 3.33333 µM | 6.66667 µM | 10 µM | 30 µM
24 h | -2.02 | -6.84 | 10.5 | 23.4 | 28.8 | 39.3
48 h | 1.08 | -10.5 | 7.2 | 36.3 | – | –
72 h | 3.73 | -7.79 | 5.27 | – | – | –

C=C1C(=O)O[C@@H]2C[C@@]3(C)CCC[C@H](C)C3=C[C@H]12 [alantolactone]
Conditions | SARS-CoV-2 infection rate, [3] [%] | cell count, [1] [%] | cell viability, [4] [%] | cell viability, [5] [%] | cell viability, [6] [%] | cell viability, [14] [%] | morphology score, [2]
1 nM | – | – | 94.8 | 99.2 | 94.7 | 94.9 | –
10 nM | – | – | 102 | 96.4 | 95.8 | 99 | –
100 nM | – | – | 106 | 101 | 95.8 | 101 | –
0.3 µM | 104 | 100 | – | – | – | – | 0.1
1000 nM | – | – | 104 | 96.4 | 96.8 | 99.8 | –
3 µM | 92 | 98 | – | – | – | – | -0.12
10 µM | 91 | 97 | – | – | – | – | -0.07
10000 nM | – | – | 117 | 96.6 | 101 | 89.7 | –
30 µM | 35 | 9 | – | – | – | – | 0.21

Conditions | drug sensitivity score | relative viability EC50 [nM]
[8] | 0 | –
[9] | 0 | –
[10] | 0 | –
[12] | – | > 10000
[15] | 0 | –
[17] | – | > 10000
[18] | – | > 10000
[19] | – | > 10000

drug-induced phospholipidosis [%], [16]
Conditions | 0.3 µM | 0.833333 µM | 3.33333 µM | 6.66667 µM | 10 µM | 30 µM
24 h | 0.44 | -0.52 | -2.33 | -1.69 | -1.05 | 3.99
48 h | 0.11 | -0.81 | -1.92 | -1 | 0.04 | 3.39
72 h | 2.31 | -0.225 | -1.83 | -1.58 | 0.848 | 3.9
